According to patent US20190083420A1, “METHODS OF USING (2R, 6R)-HYDROXYN[…] (2S, 6S)-HYDROXYN[…] THE TREATMENT OF DEPRESSION, ANXIETY, ANHEDONIA, FATIGUE, SUICIDAL IDEATION, AND POST TRAUMATIC STRESS DISORDERS” (The Uinited States of America, as represented by the …, priority 2016, published 2019):
Entries after “also recorded” stand apart in the source; their conditions may differ.

Experiments:
[1] = test system: mTOR; assay: Western blot of synaptoneurosomes, mTOR and phosphorylated mTOR; assay type: in vivo, mice
Protocol: (§1) To purify synaptoneurosomes, mouse prefrontal cortex or hippocampus were dissected and homogenized in Syn-PER Reagent (ThermoFisher Scientific, Waltham, Mass., USA; Cat #87793) with 1× protease and phosphatase inhibitor cocktail (ThermoFisher Scientific, Waltham, Mass., USA; Cat #78440). The homogenate was centrifuged for 10 min at 1,200×g at 4° C. The supernatant was centrifuged at 15,000×g for 20 min. After centrifugation, the supernatant the pellet (synaptosomal fraction) was re-suspended and sonicated in N-PER Neuronal Protein Extraction Reagent (ThermoFisher Scientific, Waltham, Mass., USA; Cat #87792). For total homogenous tissue lysates, mouse prefrontal cortex or hippocampus were homogenized and sonicated in N-PER Neuronal Protein Extraction Reagent with 1× protease & phosphatase inhibitor cocktail) Protein concentration was determined via the BCA protein assay kit (ThermoFisher Scientific, Waltham, Mass., USA; Cat #23227).
(§2) For western blotting, equal amount of proteins (10-40 μg as optimal for each antibody) for each sample were loaded into NuPage 4-12% Bis-Tris gel for electrophoresis. Nitrocellulose membranes with transferred proteins were blocked with 5% milk in TBST (TBS+0.1% Tween-20) for 1 hour and kept with primary antibodies overnight at 4° C. The following primary antibodies were used: phospho-eEF2 (Cell Signaling Technology, Danvers, Mass., USA; Cat #2331), total eEF2 (Cell Signaling Technology, Danvers, Mass., USA; Cat #2332), phospho-mTOR (Cell Signaling Technology, Danvers, Mass., USA; Cat #2971), total mTOR (Cell Signaling Technology, Danvers, Mass., USA; Cat #2983), GluR1 (Cell Signaling Technology, Danvers, Mass., USA; […]), GluR2 (Cell Signaling Technology, Danvers, Mass., USA; Cat #13607), BDNF (Santa Cruz Biotechnology, Dallas, Tex., USA; Cat # sc-546), and GAPDH (Abcam, Cambridge, Mass., USA; Cat # ab8245). The next day, blots were washed three times in PBST and incubated with horseradish peroxidase conjugated anti-mouse or anti-rabbit secondary antibody (1:5000 to 1:10000) for 1 hour. After final three washes with TBST, bands were detected using enhanced chemiluminescence (ECL) with the Syngene Imaging System (G:Box ChemiXX9). After imaging, the blots then were incubated in the stripping buffer (ThermoFisher Scientific, Waltham, Mass., USA; Cat #46430) for 10-15 min at room temperature followed by three time washes with TBST. The stripped blots were washed in blocking solution for 1 hour and incubated with the primary antibody directed against total levels of the respective protein or GAPDH for loading control. Densitometric analysis of phospho- and total immunoreactive bands for each protein was conducted using Syngene's GenTools software Immunoreactivity was normalized to the saline treated control group for each protein.

[2] = test system: Male C57BL/6J mice; assay: Chronic social defeat stress and social interaction/avoidance test; assay type: in vivo; conditions: for locomotor activity and total compartmental crosses in the social interaction test: following chronic social defeat stress; for reversal of social interaction deficits / social avoidance induced by chronic social defeat stress: single i.p. injection, re-test 24 hours following treatment
Protocol: Male C57BL/6J mice underwent a 10-day chronic social defeat stress paradigm. Briefly, experimental mice were introduced to the home cage (43 cm length×11 cm width×20 cm height) of a resident aggressive retired CD-1 breeder, prescreened for aggressive behaviors, for 10 min. Following this physical attack phase, mice were transferred and housed in the opposite side of the resident's cage divided by a Plexiglas perforated divider, in order to maintain continuous sensory contact. This process was repeated for 10 days. Experimental mice were introduced to a novel aggressive CD-1 mouse each day. On day 11, test mice were screened for susceptibility in a social interaction/avoidance choice test. The social interaction apparatus consisted of a rectangular three-chambered box (mouse conditioned-place preference chamber; Stoelting Co., Wood Dale, Ill., USA), see FIG. 7b) comprised of two equal sized end-chambers and a smaller central chamber. The social interaction/avoidance choice test consisted of two 5-min phases. During the habituation phase, mice explored the empty apparatus. During the test phase, two small wire cages (Galaxy Cup, Spectrum Diversified Designs, Inc., Streetsboro, Ohio, USA), one containing a “stranger” CD-1 mouse and the other one empty, were placed in the far corners of each chamber. The time spent interacting (nose within close proximity of the cage) with the “stranger” mouse versus the empty cage was analysed using TopScan video tracking software (CleverSys, Reston, Va.). Locomotor activity (total distance moved over 5 min) and number of total crosses into and out of the central chamber were also measured. The social interaction ratio was calculated by dividing the time spent interacting with the “stranger” by the time spent with the empty cage. Mice having a social interaction ratio higher than 1.0 were considered resilient and mice with a social interaction ratio lower than 1.0 were considered susceptible. On day 13 resilient and susceptible mice received an i.p. injection of either saline, (R,S)-KET (20 mg/kg; chosen based upon dose previously effective in C57BL/6J mice^31), MK-801 (0.1 mg/kg) or (2R,6R)-HNK (20 mg/kg). Mice were re-tested for social interaction/avoidance on […] (24 hours following treatment).

[3] = test system: BDNF; assay: Western blot of synaptoneurosomes, BDNF levels; assay type: in vivo, mice; conditions: for mBDNF levels: hippocampus, 24 hours post-administration, 10 mg/kg; for proBDNF / mBDNF levels: prefrontal cortex
Protocol: as §1, §2

[4] = test system: mice; assay: Drug discrimination in ketamine-trained mice; assay type: in vivo; conditions: for response rate of overall lever pressing per sec: drug discrimination paradigm
Protocol: Mice were food restricted until they reached 85% of their initial body weight and were maintained at 85% throughout the duration of the experiment Animals were trained to lever press for food (20 mg sucrose pellets; TestDiet, St. Luis, Mo., USA) in standard two lever-operant conditioning chambers (Coulbourn Instruments, Whitehall, Pa., USA), under a fixed-ratio 5 of reinforcement (FR5) in daily 30-min sessions. When stable responding was succeeded over 3 consecutive sessions (average of 40 training sessions), mice were trained to discriminate ketamine (10 mg/kg) from saline (7.5 ml/kg) under a double alternation schedule (e.g., ketamine, ketamine, saline, saline). The subjects received either ketamine (10 mg/kg; i.p.) or saline (7.5 ml/kg) 15 minutes prior to the start of the 30-minute session. […] Drug discrimination test sessions were conducted when mice reached the following criteria: (1) first FR5 completed on the correct lever, and (2)≥85% correct lever responding over the entire session. During the test sessions mice were administered with saline (7.5 ml/kg), ketamine (10 mg/kg), phencyclidine (PCP; 3 mg/kg) or (2R,6R)-HNK (10 and 50 mg/kg). […] Recording of responses and pellet delivery were controlled and calculated by an automated computer system (Graphic State v3.1; Coulbourn Instruments, Whitehall, Pa., USA).

[5] = hippocampus, 1- or 24-hours post-injection, 10 mg/kg

| SMILES | mTOR / phosphorylated mTOR synaptoneurosome levels [1, 5] | mTOR / phosphorylated mTOR synaptoneurosome levels ([1]; hippocampus, 1- or 24-hours post-injection, 10 mg/kg, listed as (2R,6R)-hydroxynorketamine) | mTOR / phosphorylated mTOR synaptoneurosome levels ([1]; prefrontal cortex) | locomotor activity and total compartmental crosses in the social interaction test [2] | reversal of social interaction deficits / social avoidance induced by chronic social defeat stress [2] | mBDNF levels ([3]; listed as (2R,6R)-hydroxynorketamine) | proBDNF / mBDNF levels [3] | response rate of overall lever pressing per sec [4] | ketamine-associated discriminative stimulus ([4]; mice trained to discriminate ketamine (10 mg/kg) from saline) | mTOR / phosphorylated mTOR synaptoneurosome levels ([1]; hippocampus, 1- or 24-hours post-injection, 10 mg/kg, listed as (R,S)-ketamine) | mTOR / phosphorylated mTOR synaptoneurosome levels ([1]; prefrontal cortex, listed as (R,S)-KET) | mBDNF levels [3] | mBDNF levels ([3]; listed as (R,S)-ketamine) |
| --- | --- | --- | --- | --- | --- | --- | --- | --- | --- | --- | --- | --- | --- |
| N[C@@]1(c2ccccc2Cl)CCC[C@@H](O)C1=O [(2R,6R)-HNK, (2R,6R)-2-amino-2-(2-chlorophenyl)-6-hydroxycyclohexanone] | not observed | did not alter synaptoneurosome levels of mTOR or phosphorylated mTOR | not observed; also recorded: did not alter | not associated with changes | reversed social interaction deficits | increased mBDNF levels | did not alter | not changed | did not induce; also recorded: did not produce ketamine-related discrimination responses; also recorded: did not produce discriminative stimulus behaviors | – | – | – | – |
| CNC1(c2ccccc2Cl)CCCCC1=O (racemic) [ketamine, (R,S)-ketamine, reference compound] | not observed | – | not observed | without affecting | reversed social defeat stress-induced social avoidance behaviors | – | did not alter | not changed | – | did not alter synaptoneurosome levels of mTOR or phosphorylated mTOR | did not alter | increased hippocampal BDNF | increased mBDNF levels |
